{"source": "paper PMC6937593", "about": "“Anti-metastatic Inhibitors of Lysyl Oxidase (LOX): Design and Structure–Activity Relationships” (Journal of Medicinal Chemistry, 2019)", "key": {"LOX": {"biological_target": "T1, LOX (Sus scrofa, UniProt P45845)", "T1 construct": "LOX enzyme was extracted from pig skin by the method of Shackleton and Hulmes; from tissue; host or cells: pig skin", "T1 sequence (P45845 1-249)": "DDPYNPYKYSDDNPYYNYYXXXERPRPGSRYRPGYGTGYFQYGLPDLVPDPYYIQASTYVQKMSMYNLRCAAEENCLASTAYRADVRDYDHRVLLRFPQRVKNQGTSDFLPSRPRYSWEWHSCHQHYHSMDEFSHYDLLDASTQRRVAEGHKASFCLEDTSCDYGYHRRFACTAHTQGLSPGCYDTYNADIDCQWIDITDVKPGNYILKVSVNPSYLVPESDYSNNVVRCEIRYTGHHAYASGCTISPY", "experiment": "LOX enzyme activity assay (HRP-coupled fluorescent, cadaverine substrate);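 note: LOX isolated from porcine skin, nine-point dilution series starting at 100 µM, 20 min preincubation with enzyme, BAPN serving as positive control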", "assay_type": "biochemical, pig"}, "DAO": {"biological_target": "T2, DAO (Sus scrofa, UniProt Q9TRC7)", "T2 construct": "purchased Sigma", "T2 sequence (Q9TRC7 25-755)": "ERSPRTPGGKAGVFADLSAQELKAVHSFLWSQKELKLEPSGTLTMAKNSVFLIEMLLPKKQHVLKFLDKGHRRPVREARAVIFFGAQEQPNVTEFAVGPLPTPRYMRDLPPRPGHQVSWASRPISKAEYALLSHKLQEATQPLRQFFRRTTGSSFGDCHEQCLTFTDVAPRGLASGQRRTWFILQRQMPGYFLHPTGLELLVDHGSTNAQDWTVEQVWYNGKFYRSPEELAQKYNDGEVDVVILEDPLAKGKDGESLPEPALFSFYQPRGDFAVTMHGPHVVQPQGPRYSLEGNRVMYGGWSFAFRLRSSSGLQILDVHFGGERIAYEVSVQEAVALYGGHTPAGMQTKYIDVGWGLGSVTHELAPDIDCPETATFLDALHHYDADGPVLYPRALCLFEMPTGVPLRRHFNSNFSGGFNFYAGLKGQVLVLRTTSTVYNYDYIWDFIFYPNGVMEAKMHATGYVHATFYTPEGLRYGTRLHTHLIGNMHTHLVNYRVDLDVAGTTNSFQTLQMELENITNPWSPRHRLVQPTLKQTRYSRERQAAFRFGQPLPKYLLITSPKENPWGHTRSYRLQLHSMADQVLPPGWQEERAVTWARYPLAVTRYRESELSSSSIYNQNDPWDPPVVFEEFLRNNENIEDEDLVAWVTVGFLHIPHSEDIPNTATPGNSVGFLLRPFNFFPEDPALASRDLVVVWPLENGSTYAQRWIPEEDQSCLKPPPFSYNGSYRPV", "experiment": "biochemical", "settings": "n = 2 individual values"}, "MAO-B": {"biological_target": "T3, MAO-B (Homo sapiens, UniProt P27338)", "T3 construct": "purchased Sigma", "T3 sequence (P27338 1-520)": "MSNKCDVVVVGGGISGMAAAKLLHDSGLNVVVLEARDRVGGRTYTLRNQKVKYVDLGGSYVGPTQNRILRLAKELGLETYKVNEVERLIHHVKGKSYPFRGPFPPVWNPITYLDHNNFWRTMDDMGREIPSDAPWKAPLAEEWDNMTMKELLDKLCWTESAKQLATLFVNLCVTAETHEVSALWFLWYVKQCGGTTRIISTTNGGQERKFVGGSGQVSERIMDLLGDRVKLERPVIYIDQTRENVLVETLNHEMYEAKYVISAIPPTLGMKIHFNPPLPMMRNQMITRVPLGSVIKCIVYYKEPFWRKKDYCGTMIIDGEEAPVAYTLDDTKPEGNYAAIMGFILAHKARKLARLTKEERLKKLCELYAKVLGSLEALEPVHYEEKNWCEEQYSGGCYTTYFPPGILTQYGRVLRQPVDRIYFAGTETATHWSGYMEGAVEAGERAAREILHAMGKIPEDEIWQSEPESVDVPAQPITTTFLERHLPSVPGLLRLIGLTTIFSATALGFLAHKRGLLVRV", "experiment": "MAO-B assay (MAO-Glo)", "assay_type": "biochemical", "settings": "n = 2 individual values"}, "[1]": {"experiment": "Caco-2 permeability assay", "assay_type": "in vitro ADME", "settings": "human"}, "MLM stability assay": {"experiment": "MLM stability assay", "assay_type": "in vitro ADME, mouse", "settings": "percentage of compound remaining after 30 min; 10 μM"}, "In vivo PK in mice": {"experiment": "In vivo PK in mice", "set-up": "species or system mouse"}, "[2]": {"settings": "mouse plasma, single oral gavage dose 50 mg/kg"}}, "data": [{"smiles": "Cc1ccc(-c2cc(S(=O)(=O)c3ccc(CN)s3)ccc2S(C)(=O)=O)cc1.Cl", "note": "[9l, (5-((4′-Methyl-6-(methylsulfonyl)-[1,1′-biphenyl]-3-yl)sulfonyl)thiophen-2-yl)methanamine Hydrochloride]", "values": [{"measurement": "LOX inhibition (in words)", "setting": "LOX", "value": "sub-micromolar"}, {"measurement": "IC50", "setting": "DAO", "value": "> 100", "unit": "µM"}, {"measurement": "IC50", "setting": "MAO-B", "value": "> 100", "unit": "µM"}, {"measurement": "Papp A→B", "setting": "[1]; A → B", "value": 18, "unit": "×10⁻⁶ cm/s"}, {"measurement": "Papp B→A", "setting": "[1]; B → A", "value": 25, "unit": "×10⁻⁶ cm/s"}, {"measurement": "MLM stability (%)", "setting": "MLM stability assay", "value": 95, "unit": "%"}, {"measurement": "AUC(PO)", "setting": "In vivo PK in mice; [2]", "value": 12, "unit": "µM·h"}, {"measurement": "Cmax", "setting": "In vivo PK in mice; [2]", "value": 9.4, "unit": "µM"}, {"measurement": "F (oral bioavailability)", "setting": "In vivo PK in mice; mouse, PO 50 mg/kg vs IV 10 mg/kg", "value": 74, "unit": "%"}, {"measurement": "CL(IV)", "setting": "In vivo PK in mice; mouse, intravenous 10 mg/kg", "value": 106, "unit": "mL/min/kg"}, {"measurement": "t1/2(IV)", "setting": "In vivo PK in mice; mouse, intravenous 10 mg/kg", "value": 24, "unit": "min"}]}]}
